Laboratory results from article PMC7827406, “Structure–Activity Relationship (SAR) Study of Spautin-1 to Entail the Discovery of Novel NEK4 Inhibitors” (International Journal of Molecular Sciences, 2021).
Like-named read-outs stand apart in the source and are kept apart here.

Assays:
Assay in all cases: biochemical
Set-up in all cases: Eurofins KinaseProfiler full panel at Km ATP, residual kinase activity (%) relative to DMSO
[1] = biological target: AAK1(h) (Homo sapiens, UniProt Q2M2I8)
Method in brief: (§1)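 Radiometric kinase activity assays were run with ATP at Km and compounds at 10 µM, and remaining activity (%) was reported. A separate competitive binding screen measured DNA-tagged kinase displaced from immobilized active-site ligands by qPCR, giving percent kinase still bound at 10 µM compound in DMSO.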

[2] = biological target: CDK2/cyclinE(h) (Homo sapiens, UniProt P24941)
Method in brief: as §1

[3] = biological target: T1, DDR2(h) (Homo sapiens, UniProt Q16832)
T1 sequence (Q16832 1-855): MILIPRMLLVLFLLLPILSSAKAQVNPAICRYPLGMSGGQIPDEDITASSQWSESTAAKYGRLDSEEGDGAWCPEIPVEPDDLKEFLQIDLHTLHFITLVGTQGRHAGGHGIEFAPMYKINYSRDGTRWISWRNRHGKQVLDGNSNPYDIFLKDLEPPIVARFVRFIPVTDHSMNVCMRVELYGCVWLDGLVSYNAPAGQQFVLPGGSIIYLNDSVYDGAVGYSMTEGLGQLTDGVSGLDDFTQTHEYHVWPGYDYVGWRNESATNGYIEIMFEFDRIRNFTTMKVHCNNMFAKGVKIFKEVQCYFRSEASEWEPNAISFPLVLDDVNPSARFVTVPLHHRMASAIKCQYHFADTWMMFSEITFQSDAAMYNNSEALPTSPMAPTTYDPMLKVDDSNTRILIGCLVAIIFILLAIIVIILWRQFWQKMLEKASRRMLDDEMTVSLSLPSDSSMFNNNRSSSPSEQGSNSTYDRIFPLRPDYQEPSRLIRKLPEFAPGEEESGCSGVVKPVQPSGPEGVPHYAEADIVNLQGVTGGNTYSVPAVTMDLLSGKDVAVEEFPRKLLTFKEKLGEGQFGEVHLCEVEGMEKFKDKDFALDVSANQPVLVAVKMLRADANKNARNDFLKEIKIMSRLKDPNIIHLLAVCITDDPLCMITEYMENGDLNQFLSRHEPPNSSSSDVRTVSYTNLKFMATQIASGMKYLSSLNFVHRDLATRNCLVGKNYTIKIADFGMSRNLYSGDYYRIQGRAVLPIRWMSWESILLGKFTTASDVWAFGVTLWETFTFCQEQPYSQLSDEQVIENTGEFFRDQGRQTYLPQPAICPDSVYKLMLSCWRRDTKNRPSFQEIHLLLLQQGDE
Method in brief: as §1

[4] = biological target: T2, LATS1(h) (Homo sapiens, UniProt O95835)
T2 sequence (O95835 1-1130): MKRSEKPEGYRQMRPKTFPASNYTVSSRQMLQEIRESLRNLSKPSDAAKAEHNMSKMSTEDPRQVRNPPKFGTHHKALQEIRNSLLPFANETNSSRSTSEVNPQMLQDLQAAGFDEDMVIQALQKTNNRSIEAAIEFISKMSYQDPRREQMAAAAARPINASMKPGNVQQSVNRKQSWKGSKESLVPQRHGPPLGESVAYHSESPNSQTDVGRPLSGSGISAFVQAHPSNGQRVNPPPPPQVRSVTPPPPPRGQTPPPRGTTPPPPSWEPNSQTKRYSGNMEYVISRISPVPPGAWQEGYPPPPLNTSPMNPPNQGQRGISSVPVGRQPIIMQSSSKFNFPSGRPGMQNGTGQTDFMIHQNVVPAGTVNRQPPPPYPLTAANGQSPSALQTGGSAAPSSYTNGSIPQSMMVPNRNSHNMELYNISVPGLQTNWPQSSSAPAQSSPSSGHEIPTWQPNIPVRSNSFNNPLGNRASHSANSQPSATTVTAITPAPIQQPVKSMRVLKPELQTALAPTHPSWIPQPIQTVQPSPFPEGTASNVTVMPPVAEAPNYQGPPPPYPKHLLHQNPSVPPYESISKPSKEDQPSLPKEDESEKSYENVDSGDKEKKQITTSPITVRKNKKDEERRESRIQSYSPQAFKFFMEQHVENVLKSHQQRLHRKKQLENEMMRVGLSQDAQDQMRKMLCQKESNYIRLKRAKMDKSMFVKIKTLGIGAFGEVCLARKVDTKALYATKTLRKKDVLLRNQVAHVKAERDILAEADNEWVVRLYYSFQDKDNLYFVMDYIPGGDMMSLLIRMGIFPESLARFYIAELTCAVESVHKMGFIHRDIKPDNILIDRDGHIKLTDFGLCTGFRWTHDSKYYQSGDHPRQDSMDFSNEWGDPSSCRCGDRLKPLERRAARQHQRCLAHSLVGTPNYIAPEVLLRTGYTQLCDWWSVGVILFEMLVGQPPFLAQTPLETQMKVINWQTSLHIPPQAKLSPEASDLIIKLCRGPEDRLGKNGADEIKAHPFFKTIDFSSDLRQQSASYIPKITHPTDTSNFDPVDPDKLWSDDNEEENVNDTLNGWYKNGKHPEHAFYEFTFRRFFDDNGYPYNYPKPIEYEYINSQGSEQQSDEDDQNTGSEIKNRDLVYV
Method in brief: as §1

[5] = biological target: T3, PI3 Kinase (p110a(H1047R)/p85a)(m) (Mus musculus, UniProt P42337, H1047R)
T3 construct: gene Pik3ca
T3 sequence (P42337 whole entry H1047R): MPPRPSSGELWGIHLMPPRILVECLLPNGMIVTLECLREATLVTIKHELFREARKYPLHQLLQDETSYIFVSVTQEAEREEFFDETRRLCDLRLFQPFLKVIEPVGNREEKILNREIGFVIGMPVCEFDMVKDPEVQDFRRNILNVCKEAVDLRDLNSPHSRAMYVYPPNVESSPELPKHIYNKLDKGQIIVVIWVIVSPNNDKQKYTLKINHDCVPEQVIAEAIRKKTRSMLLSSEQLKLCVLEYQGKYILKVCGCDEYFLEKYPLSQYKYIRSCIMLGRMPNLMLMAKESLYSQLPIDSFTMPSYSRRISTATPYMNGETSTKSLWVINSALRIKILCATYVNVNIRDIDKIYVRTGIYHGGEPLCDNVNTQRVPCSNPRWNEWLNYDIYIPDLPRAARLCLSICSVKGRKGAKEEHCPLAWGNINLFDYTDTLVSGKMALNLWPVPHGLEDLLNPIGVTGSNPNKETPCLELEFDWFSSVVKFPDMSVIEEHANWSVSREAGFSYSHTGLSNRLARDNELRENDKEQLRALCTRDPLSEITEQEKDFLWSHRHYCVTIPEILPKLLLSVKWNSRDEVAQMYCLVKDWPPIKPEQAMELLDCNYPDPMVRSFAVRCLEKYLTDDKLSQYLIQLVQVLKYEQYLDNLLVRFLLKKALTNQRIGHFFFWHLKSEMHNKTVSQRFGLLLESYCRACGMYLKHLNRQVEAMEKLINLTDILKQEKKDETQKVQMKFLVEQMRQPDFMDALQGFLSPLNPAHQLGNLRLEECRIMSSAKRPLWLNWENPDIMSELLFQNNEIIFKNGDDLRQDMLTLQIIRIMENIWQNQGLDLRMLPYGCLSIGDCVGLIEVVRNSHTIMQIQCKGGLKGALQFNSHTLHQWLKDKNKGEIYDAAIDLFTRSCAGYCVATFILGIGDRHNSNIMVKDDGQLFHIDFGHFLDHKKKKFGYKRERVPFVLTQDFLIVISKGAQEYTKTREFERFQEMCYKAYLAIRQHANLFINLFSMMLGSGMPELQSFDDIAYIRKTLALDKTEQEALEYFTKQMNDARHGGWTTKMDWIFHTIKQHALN
T3 sequence (P26450 whole entry partner): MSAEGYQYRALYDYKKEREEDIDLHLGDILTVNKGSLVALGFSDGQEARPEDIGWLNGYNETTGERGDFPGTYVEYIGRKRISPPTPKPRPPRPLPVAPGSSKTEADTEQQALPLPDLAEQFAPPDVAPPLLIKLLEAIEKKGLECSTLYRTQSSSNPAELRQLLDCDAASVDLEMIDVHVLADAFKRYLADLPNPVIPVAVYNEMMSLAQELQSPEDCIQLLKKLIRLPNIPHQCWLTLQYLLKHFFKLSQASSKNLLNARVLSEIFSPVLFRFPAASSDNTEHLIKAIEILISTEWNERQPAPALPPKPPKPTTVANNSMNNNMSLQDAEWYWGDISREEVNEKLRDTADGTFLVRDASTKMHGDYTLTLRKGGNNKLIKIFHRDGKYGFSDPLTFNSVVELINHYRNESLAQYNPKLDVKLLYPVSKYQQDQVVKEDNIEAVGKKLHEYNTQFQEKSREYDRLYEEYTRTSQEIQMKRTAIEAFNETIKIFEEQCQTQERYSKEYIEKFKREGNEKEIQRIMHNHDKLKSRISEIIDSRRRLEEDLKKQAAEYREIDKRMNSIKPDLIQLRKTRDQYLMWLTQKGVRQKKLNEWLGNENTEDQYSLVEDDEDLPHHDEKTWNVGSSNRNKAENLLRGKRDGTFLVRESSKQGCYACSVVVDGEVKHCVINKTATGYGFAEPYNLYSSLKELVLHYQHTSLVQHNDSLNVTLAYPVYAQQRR
Method in brief: as §1

[6] = biological target: T4, PKCγ(h) (Homo sapiens, UniProt P05129)
T4 construct: gene PRKCG
Method in brief: as §1

[7] = read-out: Residual activity (%) Spautin-1 5aa
[8] = read-out: Residual activity (%) 5as
[9] = read-out: Residual activity (%) 5at
[10] = read-out: Residual activity (%) 5ay

Chain of AAK1(h) (Q2M2I8 whole entry): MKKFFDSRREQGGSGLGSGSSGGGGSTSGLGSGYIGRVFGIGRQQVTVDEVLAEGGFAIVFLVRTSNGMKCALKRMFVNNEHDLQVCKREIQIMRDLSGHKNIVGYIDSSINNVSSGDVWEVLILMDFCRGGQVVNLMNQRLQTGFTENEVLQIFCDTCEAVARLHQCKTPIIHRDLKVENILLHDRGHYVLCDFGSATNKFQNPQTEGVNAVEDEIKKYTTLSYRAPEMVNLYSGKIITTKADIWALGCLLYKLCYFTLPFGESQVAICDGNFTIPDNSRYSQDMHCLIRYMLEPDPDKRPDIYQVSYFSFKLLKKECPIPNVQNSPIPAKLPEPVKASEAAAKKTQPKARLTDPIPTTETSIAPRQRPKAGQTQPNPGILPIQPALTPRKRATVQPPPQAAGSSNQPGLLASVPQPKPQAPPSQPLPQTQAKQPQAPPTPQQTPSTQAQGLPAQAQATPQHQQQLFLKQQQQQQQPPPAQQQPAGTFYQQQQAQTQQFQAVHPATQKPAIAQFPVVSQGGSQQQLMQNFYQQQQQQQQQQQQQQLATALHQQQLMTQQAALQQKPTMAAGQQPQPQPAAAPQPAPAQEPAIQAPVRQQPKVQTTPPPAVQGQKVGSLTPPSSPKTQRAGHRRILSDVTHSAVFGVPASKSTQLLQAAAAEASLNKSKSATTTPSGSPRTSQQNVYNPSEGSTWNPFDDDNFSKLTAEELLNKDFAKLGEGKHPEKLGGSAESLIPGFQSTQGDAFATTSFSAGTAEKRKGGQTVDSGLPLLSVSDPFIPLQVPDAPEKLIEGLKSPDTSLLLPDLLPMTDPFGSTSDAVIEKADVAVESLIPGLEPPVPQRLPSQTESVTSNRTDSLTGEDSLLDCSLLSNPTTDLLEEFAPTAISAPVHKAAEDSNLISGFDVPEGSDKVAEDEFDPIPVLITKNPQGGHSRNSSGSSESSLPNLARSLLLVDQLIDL

Structure (SMILES): Fc1ccc(CNc2ncnc3ccc(F)cc23)cc1 [5aa, 6-Fluoro-N-(4-fluorobenzyl)-4-Quinazolinamine]
- remaining activity at 10 µM [1, 7]: 95%
- remaining activity at 10 µM [2, 7]: 69%
- remaining activity at 10 µM [3, 7]: 87%
- remaining activity at 10 µM [4, 7]: 102%
- remaining activity at 10 µM [5, 7]: 96%
- remaining activity at 10 µM [6, 7]: 86%

Structure (SMILES): Fc1ccc(CCNc2ncnc3ccc(F)cc23)cc1 [5as, 6-Fluoro-N-[2-(4-Fluorophenyl)Ethyl]-4-Quinazolinamine]
- remaining activity at 10 µM [1, 8]: 81%
- remaining activity at 10 µM [2, 8]: 103%
- remaining activity at 10 µM [3, 8]: 80%
- remaining activity at 10 µM [4, 8]: 79%
- remaining activity at 10 µM [5, 8]: 95%
- remaining activity at 10 µM [6, 8]: 74%

Structure (SMILES): Fc1ccc2ncnc(NCCc3ccc(Cl)cc3)c2c1 [5at, N-[2-(4-Chlorophenyl)Ethyl]-6-Fluoro-4-Quinazolinamine]
- remaining activity at 10 µM [1, 9]: 72%
- remaining activity at 10 µM [2, 9]: 54%
- remaining activity at 10 µM [3, 9]: 82%
- remaining activity at 10 µM [4, 9]: 83%
- remaining activity at 10 µM [5, 9]: 94%
- remaining activity at 10 µM [6, 9]: 72%

Structure (SMILES): COc1ccc2ncnc(Nc3cccc(F)c3)c2c1 [5ay, N-(3-Fluorophenyl)-6-Methoxy-4-Quinazolinamine]
- remaining activity at 10 µM [1, 10]: 53%
- remaining activity at 10 µM [2, 10]: 89%
- remaining activity at 10 µM [3, 10]: 84%
- remaining activity at 10 µM [4, 10]: 79%
- remaining activity at 10 µM [5, 10]: 93%
- remaining activity at 10 µM [6, 10]: 81%
